From patent US20060099712A1, “Correlation of anti-cancer activity of dyes with redox potentials” (Eastman Kodak Company, priority 2004, published 2006) come the findings set out here.

The subject of the experiment is CX-1 Human Colon Carcinoma. Nature of the experiment: Clonogenic dye screening assay, CX-1 cells (IC50). The experiment is classed as cell-based. More on the design: CX: unit not given here. The settings on record: for CX (IC50 in the CX-1 cell line): 3 hrs treatment, colonies after 7-10 days, unit from method b117-118; for CV/CX (selectivity, kill ratio): ratio of IC50 in normal CV-1 line to IC50 in carcinoma CX-1 line; for CX: CX-1 cells; for CV/C: selectivity ratio, value of 1 where dye inactive. The source says: CX-1 is a cancerous human colon adenocarcinoma cell line. CV-1 is a non-cancerous control, which is a kidney epithelial cell line from an African green monkey. IC50 is the dye concentration at which 50% of the cells are killed. Selectivity or kill ratio is defined as the ratio of […] at IC50 for both CX-1 and CV-1. A ratio with a high number indicates a high selectivity.
The dyes were screened in two cell lines. CX-1 is a human colon adenocarcinoma cell line. CV-1 is a kidney epithelial cell line from an African green monkey. CV-1 was used as a reference because no normal human epithelial cell line is available for clonogenic assay.
In the initial screen, dyes were examined at six different concentrations to generate a dose response curve. An IC50 value, the concentration at which 50% of the cells are killed, was then calculated. Initially, a dye concentration of 1.0 μg/mL was the highest examined for the CX-1 cell line and 0.005 μg/mL was the lower limit. The corresponding limits on the CV-1 cell line were […].
The screening procedure used a response curve that was determined from eight dye concentrations. The upper and lower limits of CX-1 were 0.32 and 0.0015 μg/mL, respectively, and the corresponding revised limits on CV-1 were 3.2 and 0.025 μg/mL. The screening results were reported by assigning an IC50 value to each dye for the CV-1 and CX-1 cell lines. These values will be referred to herein simply as CV and CX. The most desirable result would be to have a dye that was highly toxic to carcinoma cells but nontoxic to ‘normal’ cells. One measure of this type of selectivity is the ratio of the IC50's in the normal cell line to that in the carcinoma line, CV/CX.
Compounds are screened via an in vitro assay. CV-1 and CX-1 cells are seeded into separate assay plates. The plates are treated with varying concentrations of test compounds, rinsed, and colonies allowed to grow. IC50's are determined and drugs evaluated based on their selectivity and toxicity. Assay Steps: • I. Seeding Cells • II. Weighing • III. Preparation of Solution • IV. Treatment • V. Rinsing and Feeding • VI. Fixing • VII. IC50 Determination I. Seeding Cells
The cells should be seeded 16-30 hours before treatment. The media for CV-1 cells is DME+5% calf serum +5% Nuserum. The media for CX-1 cells is RPMI/DME (50/50)+5% calf serum +5% Nuserum.
(c) number of cells based on 2000 CX-1 cells/well and 1000 CV-1 cells/well. NOTE: Always make enough cell suspension for 1 extra plate to allow for volume loss during transfers.
• (a) For CV-1: 256 ug/ml-256 ul of 1 mg/ml stock +744 ul DMSO • (b) For CX-1: 25.6 ug/ml-100 ul of 256 ug/ml+900 ul DMSO IV. Treatment • 1. Each plate is treated with 4 test compounds, one positive control and one negative control. • 2. Serial dilutions of the compounds are made in the following way:
2 multi-well pipetters are used. One is set for 10 ul and one for 200 ul. Each is equipped with 6 tips spaced such that they fit into the 6 rows of a plate. 390 ul of media is added to the first column of each plate. 10 ul each of 4 compound solutions, a positive and a negative control are taken up and put into the first column of wells. The 200 ul pipetter is then placed in the same wells, pipetted up and down 3 times and two 200 ul aliquots are moved to the next column of wells. This column is pipetted up and down 3 times and 400 ul moved to column 3, etc. The final 400 ul excess from column 8 is discarded.
• 3. Label the plates along the front, each row −1 compound. • 4. Incubate the plates at 37° C. for 3 hrs. V. Rinsing • 1. Prepare several bottles of CX-1 and CV-1 media. • 2. Check for precipitate in first column of each plate and note. • 3. Starting with the plates treated first, rinse several plates at a time by aspirating the treatments and refilling each well with 0.5-1.0 ml of the rinse media. Aspirate and refill 2 more times for a total of 3 rinses. • 4.

The mark [1] stands for this setting: Table XVII, benzotellurazole derivatives.
Setting [2] is: Table XVII, selectivity ratio of IC50 values.
Setting [3] is: Table XVI, selectivity ratio of IC50 values.
Setting [4] is: Table XXI, oxathiacarbocyanine nitrogen substituents.

A value given as a limit tells only on which side of the number the result lay.

Regarding `CCN1C=C(c2ccccc2)O/C1=C\C=C\c1oc(-c2ccccc2)c[n+]1CC.[I-]` [Dye D-118], the “CX (IC50 in the CX-1 cell line)” value stood at 0.08 µg/mL and the “CV/CX (selectivity, kill ratio)” value amounted to 93.75.

Regarding `CCN1C2=C(CCc3ccccc32)S/C1=C\C=C\c1sc2c([n+]1CC)-c1ccccc1CC2` [drawing 43|E|4,5-H|4,5-H], the “CX (IC50 in the CX-1 cell line)” value amounted to 0.006 µg/mL and the “CV/CX (selectivity, kill ratio)” value amounted to 8.33. The like results for `CCN1/C(=C/C=C/c2oc3c(-c4ccccc4)cccc3[n+]2CC)Oc2c(-c3ccccc3)cccc21` [drawing 45|7-Ph|7-Ph] were, in that order, 0.16 µg/mL and 5.0.

`CCN1C(=CC=Cc2ccc3ccccc3[n+]2CC)C=Cc2ccccc21` [Dye B-301] came in with a CX (Table XV, symmetrical dyes) of 0.040. The CV/CX (Table XV, selectivity ratio of IC50 values) stood at 12.5. On to `CCN1/C(=C/C(C)=C/c2[te]c3ccc(C)cc3[n+]2CC)Sc2ccc(OC)cc21` [R=E, X=S, Z1=5-Me, R2=Me, Z2=5-MeO], for which, under setting [1], the CX is on record as 0.03. Moreover, under setting [2], the CV/CX is given as 33.3.

With `CCN1/C(=C/C=C/c2sc3c(N(C)C)cc(Cl)cc3[n+]2CC)Sc2ccccc21` [drawing 41|Et|5-Cl, 7-N(Me)2|H], the “CX (IC50 in the CX-1 cell line)” value is 0.03 µg/mL and the “CV/CX (selectivity, kill ratio)” value is given as 6.7.

Consider `CCN1/C(=C/C(=C/c2[te]c3ccc(OC)cc3[n+]2CC)c2ccccc2)Sc2ccccc21` [R=E, X=S, Z1=5-MeO, R2=Ph, Z2=H], for which the CX under setting [1] is 0.3. The CV/CX under setting [2] stood at 26.6. In the case of `CCN1/C(=C/C=C/c2c3ccccc3c3ccccc3[n+]2C)Sc2ccccc21` [Dye D-129], the “CX (IC50 in the CX-1 cell line)” value was 0.008 µg/mL and the “CV/CX (selectivity, kill ratio)” value worked out at 87.5. In addition, for the setting “Table XVI, unsymmetrical dyes”, the CX is listed as 0.008. In addition, the CV/CX under setting [3] was 87.5. On to `CCN1/C(=C/C(C)=C/c2[te]c3ccc(C)cc3[n+]2CC)Sc2ccc(Cl)cc21` [R=E, X=S, Z1=5-Me, R2=Me, Z2=5-Cl], for which, under setting [1], the CX is 0.10. Also, the CV/CX under setting [2] was found to be 10.0. As for `CCN(CC)CCN1/C(=C/C=C/c2oc3ccccc3[n+]2CC)Sc2ccccc21.I.[I-]` [Dye D-116], the “CV/CX (selectivity, kill ratio)” value came to 80. On the same count and under the same terms, next, `CCN1/C(=C/C(=C/c2oc3ccccc3[n+]2C)SC)Sc2ccc(Cl)cc21.[I-]` [Dye D-169]: 100.0. On to `COc1ccc2c3c(ccc2c1)S/C(=C\C=C\c1sc2ccc4cc(OC)ccc4c2[n+]1C)N3C` [drawing 43|M|7-MeO|7-MeO], for which the “CX (IC50 in the CX-1 cell line)” value amounted to 0.09 µg/mL and the “CV/CX (selectivity, kill ratio)” value was found to be 35.5. The like results for `CCN1/C(=C\C=C\c2oc3ccc(C(F)(F)F)cc3[n+]2CC)Oc2ccc(C(F)(F)F)cc21` [drawing 45|5-CF3|5-CF3] were, in that order, “>.32 µg/mL” and 10.0. For `CCN1/C(=C/C=C/c2sc3ccccc3[n+]2CC(=O)c2ccc(O)cc2O)Oc2ccccc21` [drawing 37|CC(═O)Ph-2,4-OH|Et], in that order: 0.3 µg/mL and greater than 33.3. Turning to `CCN1C(=CC=Cc2sc3ccc(OC)cc3[n+]2CC)Sc2ccccc21` [drawing 41|Et|5-MeO|H], the “CV/CX (selectivity, kill ratio)” value is 40.0. The same measure, in the same setting: next, `CCN1/C(=C/C=C(\OC(C)=O)c2sc3ccccc3[n+]2CC)Oc2ccccc21` [drawing 39|E|OAc|H]: 10.0. On to `CC[n+]1c(/C=C(/C=C2\Sc3ccccc3N2C)SC)sc2ccccc21` [drawing 38|E/M|H|SMe|H], for which the “CX (IC50 in the CX-1 cell line)” value was 0.008 µg/mL and the “CV/CX (selectivity, kill ratio)” value is 37.5. The like results for `CCN1/C(=C/C=C/c2sc3ccccc3[n+]2CCS(=O)(=O)CC)Oc2ccccc21` [drawing 37|CCSO2CC|Et] were, in that order, 0.3 µg/mL and greater than 33.3. Turning to `CCN1C(=CC=Cc2sc3cc(O)c(O)cc3[n+]2CC)Oc2ccccc21` [drawing 46|S|O|5,6-OH|H], the “CV/CX (selectivity, kill ratio)” value is reported as 8.0. `CSC(=Cc1sc2ccccc2[n+]1C)C=C1Sc2ccccc2N1C` [drawing 38|M|H|SMe|H]: the “CX (IC50 in the CX-1 cell line)” value is 0.015 µg/mL and the “CV/CX (selectivity, kill ratio)” value was 26.6. For `CCn1c(=O)/c(=C/C=C2\C=Cc3cccc4c3N2CCC4)s/c1=C\c1oc2ccccc2[n+]1CC` [Dye D-143], the “CX (IC50 in the CX-1 cell line)” value was 0.1 µg/mL and the “CV/CX (selectivity, kill ratio)” value amounted to 100. For `CCN1/C(=C/C=C/c2sc3ccccc3[n+]2CC)Sc2ccccc21.[I-]` [Dye D-165], the “CV/CX (selectivity, kill ratio)” value was found to be 100. The CV/CX under setting [3] is given as 100.0. For the molecule `CSCCN1C(=CC=Cc2sc3ccccc3[n+]2CCSC)Sc2ccccc21` [R1=CCSMe, R2=CCSMe], the CX (Table XX, thiacarbocyanine nitrogen substituents) stood at 0.015. Besides, the CV/CX (Table XX, ratio given a value of 1 where dye inactive) amounted to 12.0. In the case of `CN1C(=CC(=Cc2sc3ccccc3[n+]2C)Sc2ccccc2)Sc2ccccc21` [drawing 38|M|H|SPh|H], the “CX (IC50 in the CX-1 cell line)” value was determined as 0.065 µg/mL and the “CV/CX (selectivity, kill ratio)” value came out at 7.69. For `CCN1/C(=C/C=C/c2[te]c3cc(OC)c(OC)cc3[n+]2C)Sc2ccccc21` [R=M/E, X=S, Z1=5,6-MeO, R2=H, Z2=H], the CX under setting [1] came to 0.5. Under setting [2], the CV/CX amounted to 2.0. Consider `CCN1/C(=C/C=C/c2sc3ccc4ccccc4c3[n+]2CC)Sc2ccc3ccccc3c21` [drawing 43|E|H|H], for which the “CX (IC50 in the CX-1 cell line)” value was determined as 0.3 µg/mL and the “CV/CX (selectivity, kill ratio)” value is listed as 6.7. Regarding `CCN1/C(=C/C=C/c2sc3cc(O)c(O)cc3[n+]2CC)Oc2ccccc21` [drawing 44|E|5,6-OH|H], the “CV/CX (selectivity, kill ratio)” value stood at 8.0.

Regarding `CCN1/C(=C/C=C/c2sc3ccccc3[n+]2CC(=O)c2ccc(O)c(O)c2)Oc2ccccc21` [R1=CC(═0)Ph-3,4-OH, R2=Et], under setting [4], the CX is reported as greater than 1.0. Moreover, under “Table XXI”, the CV/C is listed as 1.0. Turning to `CCN1/C(=C/C=C/c2sc3c(OC)cccc3[n+]2CC)Sc2c(OC)cccc21` [drawing 41|Et|7-MeO|7-MeO], the “CV/CX (selectivity, kill ratio)” value was 5.0. `CCN1/C(=C/C=C/c2sc3ccccc3[n+]2CC(=O)c2ccccc2)Oc2ccccc21` [R1=CC(═0)Ph, R2=Et] registered a CX under setting [4] of 0.3. For the same molecule, for the setting “Table XXI”, the CV/C was 10.0. As to `COc1cccc2c3c(ccc12)S/C(=C\C=C\c1sc2ccc4c(OC)cccc4c2[n+]1C)N3C` [drawing 43|M|6-MeO|6-MeO], the “CX (IC50 in the CX-1 cell line)” value is 0.08 µg/mL and the “CV/CX (selectivity, kill ratio)” value turned out to be 10.0. The like results for `CCN1/C(=C/C=C/c2sc3ccc4ccccc4c3[n+]2CC)Sc2cc(N)ccc21` [drawing 47|NH2] were, in that order, 0.10 µg/mL and 40. Regarding `CCN1C(=CC=Cc2sc3ccccc3[n+]2CC)N(CC)c2cc(Cl)c(Cl)cc21` [benzimidazole(5,6-Cl)], the CX (Table XVI, unsymmetrical dyes) was found to be 0.260. Besides, the CV/CX under setting [3] is 0.8. On to `CC[n+]1c(/C=C(/C=C2\Oc3ccccc3N2C)Sc2ccccc2)sc2ccccc21` [drawing 39|M/E|H|SPh], for which the “CX (IC50 in the CX-1 cell line)” value stood at 0.1 µg/mL and the “CV/CX (selectivity, kill ratio)” value is recorded as 3.0.
